Laboratory results as given in publication PMC10885593, “Evidence that inositol 1,4,5-trisphosphate 3-kinase and inositol 1,3,4,5-tetrakisphosphate are negative regulators of platelet function” (Research and Practice in Thrombosis and Haemostasis, 2024).

Assays:
Test in all cases: competition pull-down with PIP3 beads, Western blot
Format in all cases: binding
BTK [1] = target: T1, BTK (Homo sapiens, UniProt Q06187); settings: human platelet NP40 lysate; competes with bead-bound PIP3 (about 800 nM); pH 7.4, 4 °C, 5 mM EDTA, 5 mM EGTA
T1 construct: native full-length protein in NP40 lysate of washed human platelets, captured on PIP3 beads, Western blot read-out
T1 sequence (Q06187 2-659): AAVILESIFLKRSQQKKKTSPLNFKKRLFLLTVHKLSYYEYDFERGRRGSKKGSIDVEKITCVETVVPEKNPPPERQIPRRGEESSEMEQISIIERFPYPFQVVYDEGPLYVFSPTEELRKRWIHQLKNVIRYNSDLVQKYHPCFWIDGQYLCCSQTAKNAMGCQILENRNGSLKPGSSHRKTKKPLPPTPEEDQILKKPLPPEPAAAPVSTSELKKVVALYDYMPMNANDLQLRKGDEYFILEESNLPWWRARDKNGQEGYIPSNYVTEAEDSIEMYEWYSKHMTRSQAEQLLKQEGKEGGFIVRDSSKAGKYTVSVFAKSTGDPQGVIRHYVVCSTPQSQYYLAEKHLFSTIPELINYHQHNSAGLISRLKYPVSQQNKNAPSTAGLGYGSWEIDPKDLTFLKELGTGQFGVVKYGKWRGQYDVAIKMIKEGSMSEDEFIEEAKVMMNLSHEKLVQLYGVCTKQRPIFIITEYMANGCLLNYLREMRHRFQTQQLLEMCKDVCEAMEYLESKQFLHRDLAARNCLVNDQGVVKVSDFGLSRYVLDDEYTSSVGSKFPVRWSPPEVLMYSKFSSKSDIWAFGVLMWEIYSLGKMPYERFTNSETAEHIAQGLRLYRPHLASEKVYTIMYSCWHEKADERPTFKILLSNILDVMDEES

BTK [2] = target: T1, BTK; settings: human platelet NP40 lysate; competes with bead-bound PIP3 (about 800 nM); pH 7.4, 4 °C, 5 mM EDTA, 5 mM EGTA; remark: listed apart in the source
RASA3 = target: T2, RASA3 (Homo sapiens, UniProt Q14644); settings: read-out: % inhibition of extraction at 40 μM
T2 construct: native full-length protein in NP40 lysate of washed human platelets, captured on PIP3 beads, Western blot read-out
T2 sequence (Q14644 2-834): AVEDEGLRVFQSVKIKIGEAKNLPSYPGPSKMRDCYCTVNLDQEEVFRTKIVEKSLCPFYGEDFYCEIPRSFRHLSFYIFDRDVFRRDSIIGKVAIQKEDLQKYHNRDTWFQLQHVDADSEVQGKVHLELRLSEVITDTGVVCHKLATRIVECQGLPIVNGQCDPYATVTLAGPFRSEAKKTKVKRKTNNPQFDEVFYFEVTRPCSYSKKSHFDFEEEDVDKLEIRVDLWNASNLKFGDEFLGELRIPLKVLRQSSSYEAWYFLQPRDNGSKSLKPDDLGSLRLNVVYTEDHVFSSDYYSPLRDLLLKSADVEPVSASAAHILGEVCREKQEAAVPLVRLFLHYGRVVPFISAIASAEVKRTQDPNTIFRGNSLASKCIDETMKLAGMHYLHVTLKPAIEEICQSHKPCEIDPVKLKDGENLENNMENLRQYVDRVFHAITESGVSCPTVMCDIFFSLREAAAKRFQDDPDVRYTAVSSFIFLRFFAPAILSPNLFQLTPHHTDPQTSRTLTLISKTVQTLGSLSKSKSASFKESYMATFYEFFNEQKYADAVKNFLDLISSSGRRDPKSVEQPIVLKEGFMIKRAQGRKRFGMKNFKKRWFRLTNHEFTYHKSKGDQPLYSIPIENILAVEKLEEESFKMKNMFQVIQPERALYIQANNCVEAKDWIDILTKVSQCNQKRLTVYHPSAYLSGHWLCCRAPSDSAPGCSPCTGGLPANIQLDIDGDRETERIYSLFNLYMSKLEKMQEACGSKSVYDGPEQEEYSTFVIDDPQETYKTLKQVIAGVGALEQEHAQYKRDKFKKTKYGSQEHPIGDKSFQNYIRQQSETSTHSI

inhibition at 40 µM (RASA3)	Compound	inhibition of extraction by PIP3 beads at 40 μM (BTK [1])	inhibition of extraction by PIP3 beads (BTK [2])
–	CCCCCCCC(=O)OC[C@H](COP(=O)(O)O[C@H]1[C@H](O)[C@@H](OP(=O)(O)O)[C@H](OP(=O)(O)O)[C@@H](OP(=O)(O)O)[C@H]1O)OC(=O)CCCCCCC [DiC8-PIP3]	exogenously added DiC8-PIP3 was marginally less potent at competing with PIP3 beads	–
> 90%	O=P(O)(O)OC1[C@H](O)[C@H](OP(=O)(O)O)C(OP(=O)(O)O)[C@H](OP(=O)(O)O)[C@H]1O (stereo partly drawn) [IP4]	–	IP4 also reduced extraction of the PH domain–bearing tyrosine kinase BTK
